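Method: 48-hour compound exposure of cells in 96-well plates, five concentrations, linear interpolation of endpoints. Here, GI50 denotes the concentration required for 50% inhibition of growth. The concentration for full growth arrest is given as TGI.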
Key:
Assay in all cases: NCI tumour cell line growth inhibition, 48 h
MALME-3M melanoma = test system: MALME-3M melanoma
HCC-2998 colon = test system: HCC-2998 colon
KM12 colon = test system: KM12 colon
SF-268 CNS = test system: SF-268 CNS
SK-MEL-28 melanoma = test system: SK-MEL-28 melanoma
HL-60(TB) leukemia = test system: HL-60(TB) leukemia
HT29 colon = test system: HT29 colon
BT-549 breast = test system: BT-549 breast
SK-MEL-2 melanoma = test system: SK-MEL-2 melanoma
SW-620 colon = test system: SW-620 colon
TK-10 renal = test system: TK-10 renal
T-47D breast = test system: T-47D breast
SF-539 CNS = test system: SF-539 CNS
ACHN renal = test system: ACHN renal
LOX IMVI melanoma = test system: LOX IMVI melanoma
UACC-62 melanoma = test system: UACC-62 melanoma
CCRF-CEM leukemia = test system: CCRF-CEM leukemia
A498 renal = test system: A498 renal
COLO 205 colon = test system: COLO 205 colon
SNB-19 CNS = test system: SNB-19 CNS
MOLT-4 leukemia = test system: MOLT-4 leukemia
SN12C renal = test system: SN12C renal
M14 melanoma = test system: M14 melanoma
RPMI-8226 leukemia = test system: RPMI-8226 leukemia
HOP-92 NSCLC = test system: HOP-92 NSCLC
UACC-257 melanoma = test system: UACC-257 melanoma
RXF 393 renal = test system: RXF 393 renal
NCI/ADR-RES ovarian = test system: NCI/ADR-RES ovarian
DU-145 prostate = test system: DU-145 prostate
NCI-H460 lung = test system: NCI-H460 lung
IGROV1 ovarian = test system: IGROV1 ovarian
HOP-62 NSCLC = test system: HOP-62 NSCLC
EKVX NSCLC = test system: EKVX NSCLC
SF-295 CNS = test system: SF-295 CNS
SK-OV-3 ovarian = test system: SK-OV-3 ovarian
HCT-116 colon = test system: HCT-116 colon
MDA-MB-435 = test system: MDA-MB-435
SR leukemia = test system: SR leukemia
SK-MEL-5 melanoma = test system: SK-MEL-5 melanoma
OVCAR-5 ovarian = test system: OVCAR-5 ovarian
A549 NSCLC = test system: A549 NSCLC
MCF7 breast = test system: MCF7 breast
HS 578T breast = test system: HS 578T breast
PC-3 prostate = test system: PC-3 prostate
OVCAR-8 ovarian = test system: OVCAR-8 ovarian
OVCAR-3 ovarian = test system: OVCAR-3 ovarian
K-562 leukemia = test system: K-562 leukemia
NCI-H226 lung = test system: NCI-H226 lung
OVCAR-4 ovarian = test system: OVCAR-4 ovarian
MDA-MB-231 breast = test system: MDA-MB-231 breast
786-0 renal = test system: 786-0 renal
U251 CNS = test system: U251 CNS
CAKI-1 renal = test system: CAKI-1 renal
UO-31 renal = test system: UO-31 renal
HCT-15 colon = test system: HCT-15 colon
NCI-H522 lung = test system: NCI-H522 lung
SNB-75 CNS = test system: SNB-75 CNS

Compound: CN(C)CCCNc1c2ccccc2nc2c1oc1ccc(Cl)cc12
- GI50 (MALME-3M melanoma): 4.5 µM
- TGI (MALME-3M melanoma): 17.1 µM
- GI50 (HCC-2998 colon): 1.43 µM
- TGI (HCC-2998 colon): 3.73 µM
- GI50 (KM12 colon): 2.75 µM
- TGI (KM12 colon): 14.9 µM
- GI50 (SF-268 CNS): 3.06 µM
- TGI (SF-268 CNS): 16.5 µM
- GI50 (SK-MEL-28 melanoma): 4.48 µM
- TGI (SK-MEL-28 melanoma): 16.2 µM
- GI50 (HL-60(TB) leukemia): 2.71 µM
- TGI (HL-60(TB) leukemia): 10.1 µM
- GI50 (HT29 colon): 1.03 µM
- TGI (HT29 colon): 2.94 µM
- GI50 (BT-549 breast): 3.76 µM
- TGI (BT-549 breast): 14.3 µM
- GI50 (SK-MEL-2 melanoma): 4.2 µM
- TGI (SK-MEL-2 melanoma): 16.4 µM
- GI50 (SW-620 colon): 0.777 µM
- TGI (SW-620 colon): 8.63 µM
- GI50 (TK-10 renal): 7.35 µM
- TGI (TK-10 renal): 20.1 µM
- GI50 (T-47D breast): 6.18 µM
- TGI (T-47D breast): 19.9 µM
- GI50 (SF-539 CNS): 3.31 µM
- TGI (SF-539 CNS): 12.7 µM
- GI50 (ACHN renal): 1.76 µM
- TGI (ACHN renal): 15.6 µM
- GI50 (LOX IMVI melanoma): 1.64 µM
- TGI (LOX IMVI melanoma): 3.33 µM
- GI50 (UACC-62 melanoma): 10.9 µM
- TGI (UACC-62 melanoma): 24.5 µM
- GI50 (CCRF-CEM leukemia): 2.21 µM
- TGI (CCRF-CEM leukemia): 12.6 µM
- GI50 (A498 renal): 9.15 µM
- TGI (A498 renal): 22.9 µM
- GI50 (COLO 205 colon): 1.94 µM
- TGI (COLO 205 colon): 9.57 µM
- GI50 (SNB-19 CNS): 4.95 µM
- TGI (SNB-19 CNS): 18.4 µM
- GI50 (MOLT-4 leukemia): 0.521 µM
- TGI (MOLT-4 leukemia): 18.9 µM
- GI50 (SN12C renal): 2.58 µM
- TGI (SN12C renal): 13.1 µM
- GI50 (M14 melanoma): 1.75 µM
- TGI (M14 melanoma): 4.2 µM
- GI50 (RPMI-8226 leukemia): 2.66 µM
- GI50 (HOP-92 NSCLC): 1.37 µM
- TGI (HOP-92 NSCLC): 6.59 µM
- GI50 (UACC-257 melanoma): 4.65 µM
- TGI (UACC-257 melanoma): 17.2 µM
- GI50 (RXF 393 renal): 1.95 µM
- TGI (RXF 393 renal): 6.74 µM
- GI50 (NCI/ADR-RES ovarian): 1.52 µM
- TGI (NCI/ADR-RES ovarian): 10.8 µM
- GI50 (DU-145 prostate): 4.1 µM
- TGI (DU-145 prostate): 16.6 µM
- GI50 (NCI-H460 lung): 1.05 µM
- TGI (NCI-H460 lung): 4.79 µM
- GI50 (IGROV1 ovarian): 3.68 µM
- TGI (IGROV1 ovarian): 16.2 µM
- GI50 (HOP-62 NSCLC): 4.08 µM
- TGI (HOP-62 NSCLC): 17 µM
- GI50 (EKVX NSCLC): 5.22 µM
- TGI (EKVX NSCLC): 18.6 µM
- GI50 (SF-295 CNS): 4.6 µM
- TGI (SF-295 CNS): 17.3 µM
- GI50 (SK-OV-3 ovarian): 4.53 µM
- TGI (SK-OV-3 ovarian): 17.3 µM
- GI50 (HCT-116 colon): 0.949 µM
- TGI (HCT-116 colon): 2.32 µM
- GI50 (MDA-MB-435): 3.91 µM
- TGI (MDA-MB-435): 16.1 µM
- GI50 (SR leukemia): 2.19 µM
- TGI (SR leukemia): 10.1 µM
- GI50 (SK-MEL-5 melanoma): 12.5 µM
- TGI (SK-MEL-5 melanoma): 25 µM
- GI50 (OVCAR-5 ovarian): 5.24 µM
- TGI (OVCAR-5 ovarian): 18.8 µM
- GI50 (A549 NSCLC): 3.43 µM
- TGI (A549 NSCLC): 15.3 µM
- GI50 (MCF7 breast): 1.23 µM
- TGI (MCF7 breast): 4.59 µM
- GI50 (HS 578T breast): 4.65 µM
- TGI (HS 578T breast): 21.3 µM
- GI50 (PC-3 prostate): 3.92 µM
- TGI (PC-3 prostate): 15.8 µM
- GI50 (OVCAR-8 ovarian): 3.75 µM
- TGI (OVCAR-8 ovarian): 20.2 µM
- GI50 (OVCAR-3 ovarian): 6.44 µM
- TGI (OVCAR-3 ovarian): 20.2 µM
- GI50 (K-562 leukemia): 1.25 µM
- TGI (K-562 leukemia): 11.3 µM
- GI50 (NCI-H226 lung): 4.18 µM
- TGI (NCI-H226 lung): 18.2 µM
- GI50 (OVCAR-4 ovarian): 2.83 µM
- TGI (OVCAR-4 ovarian): 14 µM
- GI50 (MDA-MB-231 breast): 2 µM
- TGI (MDA-MB-231 breast): 5.69 µM
- GI50 (786-0 renal): 3.22 µM
- TGI (786-0 renal): 14.4 µM
- GI50 (U251 CNS): 3.69 µM
- TGI (U251 CNS): 16.4 µM
- GI50 (CAKI-1 renal): 2.32 µM
- TGI (CAKI-1 renal): 13.3 µM
- GI50 (UO-31 renal): 3.15 µM
- TGI (UO-31 renal): 15.1 µM
- GI50 (HCT-15 colon): 1.45 µM
- TGI (HCT-15 colon): 6.5 µM
- GI50 (NCI-H522 lung): 3.73 µM
- TGI (NCI-H522 lung): 16.6 µM
- GI50 (SNB-75 CNS): 3.67 µM
- TGI (SNB-75 CNS): 17.4 µM
